From ChEMBL document CHEMBL1201862, “PubChem BioAssay data set” (2004)
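Briefly, cells in 96-well plates were exposed to five compound concentrations for 48 h, and endpoints were estimated by linear interpolation. Here, GI50 denotes the concentration required for 50% inhibition of growth.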 The source made the active and inactive calls. Cut-off read from the data, not from the text of the source: active = GI50 up to about 1.1 µM and inactive = higher.

Experiments:
Assay in all cases: NCI tumour cell line growth inhibition, 48 h
MOLT-4 = test system: MOLT-4
A549 = test system: A549
NCI-H460 = test system: NCI-H460
UACC-62 = test system: UACC-62
OVCAR-4 = test system: OVCAR-4
SK-MEL-5 = test system: SK-MEL-5
EKVX = test system: EKVX
HCT-116 = test system: HCT-116
SK-MEL-28 = test system: SK-MEL-28
DU-145 = test system: DU-145
ACHN = test system: ACHN
MDA-MB-435 = test system: MDA-MB-435
LOX IMVI = test system: LOX IMVI
HOP-62 = test system: HOP-62
SF-539 = test system: SF-539
OVCAR-8 = test system: OVCAR-8
OVCAR-3 = test system: OVCAR-3
PC-3 = test system: PC-3
NCI-H23 = test system: NCI-H23
BT-549 = test system: BT-549
KM12 = test system: KM12
MDA-MB-231 = test system: MDA-MB-231
UACC-257 = test system: UACC-257
HL-60 = test system: HL-60
HOP-92 = test system: HOP-92
SF-268 = test system: SF-268
TK-10 = test system: TK-10
CCRF-CEM = test system: CCRF-CEM
IGROV-1 = test system: IGROV-1
UO-31 = test system: UO-31
MDA-N = test system: MDA-N
HCT-15 = test system: HCT-15
OVCAR-5 = test system: OVCAR-5
Hs-578T = test system: Hs-578T
SNB-75 = test system: SNB-75
SK-OV-3 = test system: SK-OV-3
SF-295 = test system: SF-295
NCI-H226 = test system: NCI-H226
SNB-19 = test system: SNB-19
HT-29 = test system: HT-29
HCC 2998 = test system: HCC 2998
CAKI-1 = test system: CAKI-1
NCI-H522 = test system: NCI-H522
RXF 393 = test system: RXF 393
MCF7 = test system: MCF7
786-0 = test system: 786-0
M14 = test system: M14
COLO 205 = test system: COLO 205
SN12C = test system: SN12C
NCI/ADR-RES = test system: NCI/ADR-RES
SW-620 = test system: SW-620
U-251 = test system: U-251
SK-MEL-2 = test system: SK-MEL-2
K562 = test system: K562
RPMI-8226 = test system: RPMI-8226
Malme-3M = test system: Malme-3M
SR = test system: SR
A498 = test system: A498
T47D = test system: T47D

SMILES: Cc1cc(Cl)ccc1NC(=O)/C(CC(=O)CC(c1ccccc1)c1c(O)c2ccccc2oc1=O)=N\O (stereo not drawn)
- GI50 (MOLT-4): > 100 µM (inactive)
- GI50 (A549): > 100 µM (inactive)
- GI50 (NCI-H460): > 100 µM (inactive)
- GI50 (UACC-62): > 100 µM (inactive)
- GI50 (OVCAR-4): > 100 µM (inactive)
- GI50 (SK-MEL-5): > 100 µM (inactive)
- GI50 (EKVX): > 100 µM (inactive)
- GI50 (HCT-116): > 100 µM (inactive)
- GI50 (SK-MEL-28): > 100 µM (inactive)
- GI50 (DU-145): > 100 µM (inactive)
- GI50 (ACHN): > 100 µM (inactive)
- GI50 (MDA-MB-435): > 100 µM (inactive)
- GI50 (LOX IMVI): > 100 µM (inactive)
- GI50 (HOP-62): > 100 µM (inactive)
- GI50 (SF-539): > 100 µM (inactive)
- GI50 (OVCAR-8): > 100 µM (inactive)
- GI50 (OVCAR-3): > 100 µM (inactive)
- GI50 (PC-3): > 100 µM (inactive)
- GI50 (NCI-H23): > 100 µM (inactive)
- GI50 (BT-549): > 100 µM (inactive)
- GI50 (KM12): > 100 µM (inactive)
- GI50 (MDA-MB-231): > 100 µM (inactive)
- GI50 (UACC-257): > 100 µM (inactive)
- GI50 (HL-60): > 100 µM (inactive)
- GI50 (HOP-92): 39.2 µM (inactive)
- GI50 (SF-268): > 100 µM (inactive)
- GI50 (TK-10): > 100 µM (inactive)
- GI50 (CCRF-CEM): 7.87 µM (inactive)
- GI50 (IGROV-1): > 100 µM (inactive)
- GI50 (UO-31): 65 µM (inactive)
- GI50 (MDA-N): > 100 µM (inactive)
- GI50 (HCT-15): > 100 µM
- GI50 (OVCAR-5): > 100 µM (inactive)
- GI50 (Hs-578T): > 100 µM (inactive)
- GI50 (SNB-75): > 100 µM (inactive)
- GI50 (SK-OV-3): > 100 µM (inactive)
- GI50 (SF-295): > 100 µM (inactive)
- GI50 (NCI-H226): > 100 µM (inactive)
- GI50 (SNB-19): > 100 µM (inactive)
- GI50 (HT-29): > 100 µM (inactive)
- GI50 (HCC 2998): > 100 µM (inactive)
- GI50 (CAKI-1): > 100 µM (inactive)
- GI50 (NCI-H522): > 100 µM (inactive)
- GI50 (RXF 393): > 100 µM (inactive)
- GI50 (MCF7): > 100 µM (inactive)
- GI50 (786-0): > 100 µM (inactive)
- GI50 (M14): > 100 µM (inactive)
- GI50 (COLO 205): > 100 µM (inactive)
- GI50 (SN12C): > 100 µM (inactive)
- GI50 (NCI/ADR-RES): > 100 µM (inactive)
- GI50 (SW-620): > 100 µM (inactive)
- GI50 (U-251): > 100 µM (inactive)
- GI50 (SK-MEL-2): > 100 µM (inactive)

SMILES: O=C(Nc1nc(C23CC4CC(CC(C4)C2)C3)cs1)c1cc2cc([N+](=O)[O-])ccc2oc1=O
- GI50 (MOLT-4): 57.8 µM (inactive)
- GI50 (A549): 70.5 µM (inactive)
- GI50 (NCI-H460): 52.6 µM (inactive)
- GI50 (OVCAR-4): 17.8 µM (inactive)
- GI50 (SK-MEL-5): 25.6 µM (inactive)
- GI50 (EKVX): 53 µM (inactive)
- GI50 (K562): > 100 µM (inactive)
- GI50 (HCT-116): 37 µM (inactive)
- GI50 (SK-MEL-28): 75.5 µM (inactive)
- GI50 (DU-145): 86.7 µM (inactive)
- GI50 (ACHN): 47.3 µM (inactive)
- GI50 (MDA-MB-435): 73.8 µM (inactive)
- GI50 (LOX IMVI): 47.1 µM (inactive)
- GI50 (RPMI-8226): > 100 µM (inactive)
- GI50 (HOP-62): 39.7 µM (inactive)
- GI50 (SF-539): > 100 µM (inactive)
- GI50 (OVCAR-8): > 100 µM (inactive)
- GI50 (OVCAR-3): 73.3 µM (inactive)
- GI50 (PC-3): 56.9 µM (inactive)
- GI50 (NCI-H23): 77.1 µM (inactive)
- GI50 (BT-549): 14.3 µM (inactive)
- GI50 (KM12): > 100 µM (inactive)
- GI50 (MDA-MB-231): 20.9 µM (inactive)
- GI50 (UACC-257): > 100 µM (inactive)
- GI50 (HL-60): > 100 µM (inactive)
- GI50 (HOP-92): 54.8 µM (inactive)
- GI50 (SF-268): 26.2 µM (inactive)
- GI50 (TK-10): > 100 µM (inactive)
- GI50 (CCRF-CEM): 55.6 µM (inactive)
- GI50 (IGROV-1): 45.3 µM (inactive)
- GI50 (UO-31): > 100 µM (inactive)
- GI50 (MDA-N): > 100 µM (inactive)
- GI50 (HCT-15): 85.1 µM
- GI50 (OVCAR-5): > 100 µM (inactive)
- GI50 (Hs-578T): 20.3 µM (inactive)
- GI50 (SNB-75): 20.3 µM (inactive)
- GI50 (Malme-3M): 46.2 µM (inactive)
- GI50 (SF-295): 38.1 µM (inactive)
- GI50 (NCI-H226): > 100 µM (inactive)
- GI50 (SR): 68.4 µM (inactive)
- GI50 (SNB-19): 72.1 µM (inactive)
- GI50 (HT-29): 58.1 µM (inactive)
- GI50 (HCC 2998): > 100 µM (inactive)
- GI50 (CAKI-1): > 100 µM (inactive)
- GI50 (NCI-H522): > 100 µM (inactive)
- GI50 (RXF 393): 19.2 µM (inactive)
- GI50 (MCF7): 56.8 µM (inactive)
- GI50 (786-0): 17.7 µM (inactive)
- GI50 (COLO 205): 41 µM (inactive)
- GI50 (SN12C): > 100 µM (inactive)
- GI50 (NCI/ADR-RES): 35.7 µM (inactive)
- GI50 (SW-620): 33.6 µM (inactive)
- GI50 (U-251): 43 µM (inactive)
- GI50 (A498): 36.3 µM (inactive)

SMILES: C=CCOC(=O)C1=C(CCC[C@@H](C)O[Si](C)(C)C(C)(C)C)N=C(N)N2[C@H](CCO)CC[C@@H]12
- GI50 (MOLT-4): 10.5 µM (inactive)
- GI50 (A549): 10.3 µM (inactive)
- GI50 (NCI-H460): 12.9 µM (inactive)
- GI50 (UACC-62): 15.8 µM (inactive)
- GI50 (OVCAR-4): 10.5 µM (inactive)
- GI50 (SK-MEL-5): 12.4 µM (inactive)
- GI50 (K562): 6.34 µM (inactive)
- GI50 (HCT-116): 8.28 µM (inactive)
- GI50 (SK-MEL-28): 17.5 µM (inactive)
- GI50 (DU-145): 14.3 µM (inactive)
- GI50 (ACHN): 17.7 µM (inactive)
- GI50 (MDA-MB-435): 14.7 µM (inactive)
- GI50 (RPMI-8226): 9.44 µM (inactive)
- GI50 (HOP-62): 14.1 µM (inactive)
- GI50 (OVCAR-3): 11.1 µM (inactive)
- GI50 (PC-3): 8.45 µM (inactive)
- GI50 (NCI-H23): 17.7 µM (inactive)
- GI50 (BT-549): 21.8 µM (inactive)
- GI50 (KM12): 11.3 µM (inactive)
- GI50 (MDA-MB-231): 15.3 µM (inactive)
- GI50 (UACC-257): 15.6 µM (inactive)
- GI50 (HOP-92): 13.6 µM (inactive)
- GI50 (SF-268): 17.3 µM (inactive)
- GI50 (TK-10): 16.9 µM (inactive)
- GI50 (UO-31): 16.1 µM (inactive)
- GI50 (MDA-N): 17 µM (inactive)
- GI50 (HCT-15): 17.7 µM
- GI50 (SNB-75): 16.4 µM (inactive)
- GI50 (SK-OV-3): 14.1 µM (inactive)
- GI50 (Malme-3M): 18 µM (inactive)
- GI50 (SF-295): 12.6 µM (inactive)
- GI50 (NCI-H226): 18.5 µM (inactive)
- GI50 (SNB-19): 15.5 µM (inactive)
- GI50 (HCC 2998): 18.7 µM (inactive)
- GI50 (CAKI-1): 13.4 µM (inactive)
- GI50 (NCI-H522): 12.7 µM (inactive)
- GI50 (MCF7): 7.69 µM (inactive)
- GI50 (786-0): 17.9 µM (inactive)
- GI50 (M14): 13.9 µM (inactive)
- GI50 (COLO 205): 10.9 µM (inactive)
- GI50 (SN12C): 16.5 µM (inactive)
- GI50 (NCI/ADR-RES): 19.7 µM (inactive)
- GI50 (U-251): 12.3 µM (inactive)
- GI50 (SK-MEL-2): 15.3 µM (inactive)
- GI50 (A498): 18 µM (inactive)
- GI50 (T47D): 11.8 µM (inactive)
